In patent US11878075B2, “Sustained release formulations of dysoxylum binefacterum” (COUNCIL OF SCIENTIFIC AND INDUSTRIAL RESEARCH, priority 2018, dated 2024):

Key:
in vivo = details: male, SD, rat
Description: The pharmacokinetic study was performed in male SD rats. First the pharmacokinetic study of “rohitukine” was performed by both intravenous as well as per oral (PO) routes in order to understand the oral exposure and oral bioavailability of rohitukine. Rohitukine was administered at 5 mg/kg by IV route and at 50 mg/kg by oral route. For comparative oral pharmacokinetic study of plain extract (A002-AEF) and SR formulation “SR-A002-AEF” formulation (filled in 9e1 capsules), the dose equivalent to 6.77 mg/kg dose of rohitukine was administered in SD rats in both these groups. Blood samples were collected (n=3/time point) at 0.083 (IV only), 0.25, 0.5, 1, 2, 4, 8 and 24 h, post-dose. At each time point about 200 μL of blood was collected by jugular vein into a labeled microfuge tube containing 200 mM K2EDTA solution (20 μL per mL of blood) and equivalent volume of heparinized saline was replaced following sample collection. The blood samples were processed to obtain the plasma samples within 30 min of scheduled sampling time. All plasma samples were stored below −60° C. until bioanalysis. The plasma samples were analyzed for rohitukine content using a fit-for purpose LC-MS/MS method with a lower limit of quantification (LLOQ) of 9.95 ng/mL. The pharmacokinetic parameters of rohitukine were calculated using the non-compartmental analysis tool of validated Phoenix® WinNonlin® software (version 6.3).

TNF-α [1] = test: LPS induced septic shock model, serum TNF-α ELISA; assay type: in vivo, BALB/C mice; details: 20 mg/kg (PO)
Description: The effect of rohitukine, hydroalcoholic extract (A002-A) and rohitukine-enriched fraction (A002-AEF) on TNF-α secretion was studied in LPS induced septic shock model in BALB/C mice. BALB/C female mice (20-25 g) were randomly divided into 6 groups (n=4 per group). Animals were treated according to the following pattern: group 1 (vehicle), group 2 (LPS, 20 mg/kg), group 3 (Rohitukine, 20 mg/kg), group 4 (A002-A, 200 mg/kg), group 5 (A002-AEF, 200 mg/kg), group 6 (dexamethasone, 10 mg/kg). The hydroalcholic extract (A002-A) and its enriched fraction A002-AEF was dissolved in water and dexamethasone was dissolved in PBS. PBS/water was used as a vehicle control. Compounds and vehicle were administered perorally for 1 h prior to treatment with LPS. LPS was injected through intraperitoneal route for 5 h. Blood was collected and serum was extracted for performing ELISA analysis of TNF-α cytokine. The ELISA was performed according to manufacturer's instructions (BD Bioscience). The absorbance was measured at 450 nm and each estimated cytokine value was normalized with total serum protein.

[2] = tested on: TNF-alpha production in THP-1 cells; test: In-vitro cytokine inhibition in LPS-stimulated THP-1 cells (TNF-α ELISA); assay type: cell-based, human; details: THP-1 cells, 1.56, 3.12, and 6.25 μg/mL
Description: For the in vitro analysis of pro-inflammatory cytokine (TNF-α), human leukemia THP-1 cells were seeded in a 24-well plate at a density of 4×10^5 cells/ml of RPMI medium per well. THP-1 cells were then treated with PMA (20 ng/ml) for differentiation into macrophages for 18 h followed by a rest period of 48 h. Cells were further co-treated with test samples and 1 μg/ml of lipopolysaccharide (LPS) in a serum-free medium. Culture supernatant was harvested after 24 h for analysis of TNF-α by using OptEIA ELISA Kits from BD Biosciences. Total protein content for all the samples was calculated by using Bradford reagent from Bio-Rad Laboratories. All samples were normalized by dividing cytokine concentration with total quantity of protein. Betamethasone was used as positive control in this study.

IL-6 = test: Collagen induced arthritis model, serum IL-6; assay type: in vivo, DBA/1J mice; details: oral administration in arthritic mice, day 34 to day 48
Description: (§1) Six weeks old DBA/1J mice (procured from Jackson Laboratories, USA) were used in this study. On the day of the immunization (day 1), required amount of Chicken collagen II (CII), 2 mg/ml (Chondrex Inc, USA) stock solution was thawed at 4° C. into a small (20 ml) glass bottle. Equal volume of CII solution was added to the complete Freund's adjuvant (CFA), 1 mg/ml, (Sigma aldrich, USA) in 1:1 ratio and homogenized at 4° C. to produce a homogenous, stiff, white creamy emulsion for immunization. Mice were weighed and anesthetized with isoflurane. 150 μl of CII/CFA (1:1) emulsion was injected intradermally at two different sites into the mice lower back (previously shaven) on day 1. Mice were given the booster on day-21 in a similar manner as day 1 except that CII was emulsified in incomplete Freund's adjuvant. Mice were given booster of LPS from E. coli (50 μg/mouse; Sigma Aldrich, USA) on day 28. Dosing of the test samples in DBA/1J mouse CIA model was initiated after development of clinical symptoms. Animals were randomized into different treatment groups based on clinical scores on day 33. Treatment continued from day 34 to day 48. Serum IL-6, TNF-α estimation was done using ELISA kit from R & D Systems, USA. All values are expressed as Mean±SEM. * p<0.05 as compared to vehicle treatment, one way ANOVA followed by Dunnett's multiple comparison test.

TNF-α [3] = test: Collagen induced arthritis model, serum TNF-α; assay type: in vivo, DBA/1J mice
Description: as §1

[4] = pH dependent stability of rohitukine; assay type: physicochemical; details: pH 1.2 buffer, pH 4.0 buffer, phosphate buffer pH 6.8, PBS pH 7.4, SGF (pH 1.2), SIF (pH 6.8) and plasma up to 24 hrs
Description: The stability of rohitukine was performed in pH 1.2 buffer, pH 4.0 buffer, phosphate buffer pH 6.8, phosphate buffered saline pH 7.4, SGF (pH 1.2), SIF (pH 6.8) and plasma up to 24 hrs. The % of rohitukine hydrolyzed was determined by HPLC analysis. The HPLC analysis was carried out using the method as described in example 1.

[5] = rats, oral and intravenous administration; cited from earlier work

| Structure (SMILES) | bioavailability (in vivo) [%] | AUC(0-t) (in vivo; iv, 5 mg/kg) [ng·h/mL] | clearance (in vivo; iv, 5 mg/kg) [mL/min/kg] | clearance relative to normal hepatic blood flow (55 mL/min/kg) (in vivo; iv, 5 mg/kg) [fold] | half-life (in vivo; iv, 5 mg/kg) [min] | volume of distribution relative to normal total body water (0.7 L/kg) (in vivo; iv, 5 mg/kg) [fold] | AUC(0-t) (in vivo; po, 50 mg/kg) [ng·h/mL] | Cmax (in vivo; po, 50 mg/kg) [ng/mL] | half-life (in vivo; po, 50 mg/kg) [min] | median time to reach the maximum plasma concentration (in vivo; po, 50 mg/kg) [h] | serum TNF-alpha levels (TNF-α [1]) | inhibition of LPS-stimulated TNF-alpha levels [2] | serum IL-6 cytokine levels (IL-6) | serum TNF-alpha (TNF-α [3]; 5-15 mg/kg (PO) doses) | serum TNF-alpha cytokine (TNF-α [3]; 5-30 mg/kg doses) | stability of rohitukine (% hydrolyzed by HPLC) [4] | biological half-life [5] |
| --- | --- | --- | --- | --- | --- | --- | --- | --- | --- | --- | --- | --- | --- | --- | --- | --- | --- |
| Cc1cc(=O)c2c(O)cc(O)c([C@H]3CCN(C)C[C@H]3O)c2o1 [rohitukine] | > 100 | 1130 | 72.7 | ~1.32 | 22.9 | ~2.41 | 26400 | 14900 | 63.6 | 0.25 | not able to significantly inhibit the serum TNF-alpha levels | significant inhibition of TNF-alpha | decreased levels of serum IL-6 cytokine | could not inhibit serum TNF-alpha | no significant inhibition of TNF-alpha cytokine | stable at all the conditions tested | 1-2 h |
| Cc1cc(=O)c2c(O[C@@H]3OC(CO)[C@@H](O)[C@H](O)C3O)cc(O)cc2o1 (stereo partly drawn) [schumaniofioside A] | – | – | – | – | – | – | – | – | – | – | – | significant inhibition of TNF-alpha | – | – | – | – | – |
